Measured values from patent US6441195B1, “Substituted sulphonylamino(thio) carbonyl compounds” (Bayer Aktiengesellschaft, priority 1995, dated 2002).

Experiments:
Format in all cases: in vivo
Soya beans = experiment: Pre-emergence test/Greenhouse, Soya beans; settings: in vivo
Procedure: To produce a suitable preparation of the active compound, 1 part by weight of active compound is mixed with the stated amount of solvent, the stated amount of emulsifier is added and the concentrate is diluted with water to the desired concentration.
Seeds of the test plants are sown in normal soil. After about 24 hours, the soil is watered with the preparation of active compound. Advantageously, the amount of water per unit area is kept constant. The active compound concentration in the preparation is not important, only the active compound appliation rate per unit area matters.
After three weeks, the degree of damage to the plants is rated in % damage in comparison to the development of the untreated control.
0%=no action (like untreated control)

Matricaria = experiment: Pre-emergence test/Greenhouse, Matricaria; settings: after three weeks
How it was run: (§1)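 Seeds sown in normal soil were watered about 24 h later with an aqueous emulsion of compound (solvent plus emulsifier), keeping water volume per area constant so dose is set by application rate per unit area. Damage was rated after three weeks as % versus untreated control (0% = no action).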

weeds = experiment: Pre-emergence test (greenhouse), activity against weeds; settings: in words
How it was run: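 Compound formulated in acetone with alkylaryl polyglycol ether emulsifier, diluted in water, and watered onto soil about 24 h after sowing, dosed by application rate per unit area. Damage rated after three weeks as % versus untreated control (0% = no action).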

Poa = experiment: Pre-emergence test/Greenhouse, Poa; settings: after three weeks
How it was run: as §1

Ambrosia = experiment: Pre-emergence test/Greenhouse, Ambrosia; settings: after three weeks
How it was run: as §1

Solanum = experiment: Pre-emergence test/Greenhouse, Solanum; settings: after three weeks
How it was run: as §1

Maize = experiment: Pre-emergence test/Greenhouse, Maize; settings: in vivo
How it was run: as §1

Sorghum = experiment: Pre-emergence test/Greenhouse, Sorghum; settings: after three weeks
How it was run: as §1

Lolium = experiment: Pre-emergence test/Greenhouse, Lolium; settings: after three weeks
How it was run: as §1

Structure (SMILES)	degree of damage to the plants (% damage vs untreated control), Soya beans (Soya beans)	degree of damage to the plants (% damage vs untreated control), Matricaria (Matricaria; 125 g of ai./ha)	activity against weeds (weeds)	degree of damage to the plants (% damage vs untreated control), Poa (Poa; 125 g of ai./ha)	degree of damage to the plants (% damage vs untreated control), Ambrosia (Ambrosia; 125 g of ai./ha)	degree of damage to the plants (% damage vs untreated control), Solanum (Solanum; 125 g of ai./ha)	degree of damage to the plants (% damage vs untreated control), Maize (Maize)	degree of damage to the plants (% damage vs untreated control), Sorghum (Sorghum; 125 g of ai./ha)	degree of damage to the plants (% damage vs untreated control), Lolium (Lolium; 125 g of ai./ha)	degree of damage to the plants (% damage vs untreated control), Poa (Poa; 60 g of ai./ha)	degree of damage to the plants (% damage vs untreated control), Ambrosia (Ambrosia; 60 g of ai./ha)	degree of damage to the plants (% damage vs untreated control), Solanum (Solanum; 60 g of ai./ha)	degree of damage to the plants (% damage vs untreated control), Sorghum (Sorghum; 60 g of ai./ha)	degree of damage to the plants (% damage vs untreated control), Lolium (Lolium; 60 g of ai./ha)	also measured
Cc1nc(C(=O)NS(=O)(=O)c2c(C)cccc2C(=O)OC(C)C)no1 [Example 12]	0%	95%	very strong activity against weeds	80%	95%	95%	0%	60%	80%						
CCSc1nn(C(=O)NS(=O)(=O)c2c(C)csc2C(=O)OC)c(=O)n1C [Example 34]	0%		very strong activity against weeds				10%			70%	90%	90%	80%	60%	degree of damage to the plants (% damage vs untreated control), Matricaria (Matricaria; 60 g of ai./ha): 95%
COC(=O)c1cccc(Cl)c1S(=O)(=O)NC(=O)n1nc(SC)n(C)c1=O [Example 130]	0%		very strong activity against weeds				10%								degree of damage to the plants (% damage vs untreated control), Matricaria (Matricaria; 250 g of ai./ha): 95%; degree of damage to the plants (% damage vs untreated control), Poa (Poa; 250 g of ai./ha): 95%; degree of damage to the plants (% damage vs untreated control), Ambrosia (Ambrosia; 250 g of ai./ha): 95%; degree of damage to the plants (% damage vs untreated control), Solanum (Solanum; 250 g of ai./ha): 95%; degree of damage to the plants (% damage vs untreated control), Sorghum (Sorghum; 250 g of ai./ha): 80%; degree of damage to the plants (% damage vs untreated control), Lolium (Lolium; 250 g of ai./ha): 95%
CCCOC(=O)c1cccc(C)c1S(=O)(=O)NC(=O)n1nc(OCCC)n(C)c1=O [Example 22]	10%	95%	very strong activity against weeds	95%	95%	95%	20%	80%	95%						
CCCOC(=O)c1cccc(C)c1S(=O)(=O)NC(=O)n1nc(CCC)n(C)c1=O [Example 47]	10%	95%	very strong activity against weeds	90%	95%	95%	10%	60%	90%						
COC(=O)c1cccc(C)c1S(=O)(=O)NC(=O)n1nc(OCC(F)(F)F)n(C)c1=O [Example 143]	0%		very strong activity against weeds				20%			90%	80%	90%	90%	90%	
C=CCOc1nn(C(=O)NS(=O)(=O)c2c(C)cccc2C(=O)OC)c(=O)n1C [Example 148]	0%		very strong activity against weeds				40%			95%	80%	95%	90%	80%	degree of damage to the plants (% damage vs untreated control), Matricaria (Matricaria; 60 g of ai./ha): 80%
CCCOC(=O)c1cccc(C)c1S(=O)(=O)NC(=O)n1nc(OC(C)C)n(C)c1=O [Example 23]	0%	95%	very strong activity against weeds	80%	90%	90%	0%	60%							
COc1nn(C(=O)NS(=O)(=O)c2c(C)cccc2C(=O)OC(C)C)c(=O)n1C [Example 16]	0%		very strong activity against weeds												degree of damage to the plants (% damage vs untreated control), Matricaria (Matricaria; 30 g of ai./ha): 95%; degree of damage to the plants (% damage vs untreated control), Poa (Poa; 30 g of ai./ha): 95%; degree of damage to the plants (% damage vs untreated control), Ambrosia (Ambrosia; 30 g of ai./ha): 95%; degree of damage to the plants (% damage vs untreated control), Solanum (Solanum; 30 g of ai./ha): 95%; degree of damage to the plants (% damage vs untreated control), Sorghum (Sorghum; 30 g of ai./ha): 90%; degree of damage to the plants (% damage vs untreated control), Lolium (Lolium; 30 g of ai./ha): 95%
COC(=O)c1cccc(C)c1S(=O)(=O)NC(=O)n1nc(OCC2CC2)n(C2CC2)c1=O [Example 172]	60%	95%	very strong activity against weeds	95%	90%	95%		90%	90%						
CCOn1c(CC)nn(C(=O)NS(=O)(=O)c2c(C)cccc2C(=O)OC)c1=O [Example 155]	40%		very strong activity against weeds							95%	90%	95%	95%	95%	degree of damage to the plants (% damage vs untreated control), Matricaria (Matricaria; 60 g of ai./ha): 80%
COC(=O)c1cccc(C)c1S(=O)(=O)NC(=O)n1nc(SCC(F)(F)F)n(C)c1=O [Example 150]	10%	80%	very strong activity against weeds	90%	70%	80%		80%	80%						
